# Laboratory results taken from publication PMC10866072, “Design, synthesis, molecular modelling and biological evaluation of novel 6-amino-5-cyano-2-thiopyrimidine derivatives as potent anticancer agents against leukemia and apoptotic inducers” (Journal of Enzyme Inhibition and Medicinal Chemistry, 2024).
# Key:
# DU-145 = type: cell-based; details: Homo sapiens, one dose 10^-5 M, 48 h
# NCI-H522 = type: cell-based; details: Homo sapiens, one dose 10^-5 M, 48 h
# A498 = type: cell-based; details: Homo sapiens, one dose 10^-5 M, 48 h
# HOP-92 = type: cell-based; details: Homo sapiens, one dose 10^-5 M, 48 h
# HS 578T = type: cell-based; details: Homo sapiens; one dose 10^-5 M, 48 h; HS 578T; read-out: % growth
# UO-31 = type: cell-based; details: Homo sapiens, UO-31, 48 h, one dose 10^-5 M, 48 h
# HOP-62 = type: cell-based; details: Homo sapiens, one dose 10^-5 M, 48 h
# TK-10 = type: cell-based; details: Homo sapiens, one dose 10^-5 M, 48 h
# LOX IMVI = type: cell-based; details: Homo sapiens, one dose 10^-5 M, 48 h, read-out: % growth
# HCT-116 = type: cell-based; details: Homo sapiens, one dose 10^-5 M, 48 h, read-out: % growth
# UACC-257 = type: cell-based; details: Homo sapiens, one dose 10^-5 M, 48 h
# SR = type: cell-based; details: Homo sapiens, one dose 10^-5 M, 48 h
# HT29 = type: cell-based; details: Homo sapiens, HT-29, one dose 10^-5 M, 48 h
# PC-3 = type: cell-based; details: Homo sapiens, one dose 10^-5 M, 48 h
# OVCAR-5 = type: cell-based; details: Homo sapiens, one dose 10^-5 M, 48 h
# RPMI-8226 = type: cell-based; details: Homo sapiens, one dose 10^-5 M, 48 h
# A549/ATCC = type: cell-based; details: Homo sapiens, one dose 10^-5 M, 48 h
# OVCAR-4 = type: cell-based; details: Homo sapiens, one dose 10^-5 M, 48 h
# SF-539 = type: cell-based; details: Homo sapiens, one dose 10^-5 M, 48 h
# SK-MEL-5 = type: cell-based; details: Homo sapiens, one dose 10^-5 M, 48 h, read-out: % growth
# NCI/ADR-RES = type: cell-based; details: Homo sapiens, one dose 10^-5 M, 48 h
# NCI-H226 = type: cell-based; details: Homo sapiens, one dose 10^-5 M, 48 h
# OVCAR-8 = type: cell-based; details: Homo sapiens, one dose 10^-5 M, 48 h
# SF-295 = type: cell-based; details: Homo sapiens, one dose 10^-5 M, 48 h
# BT-549 = type: cell-based; details: Homo sapiens, one dose 10^-5 M, 48 h
# T-47D = type: cell-based; details: Homo sapiens, T47D, one dose 10^-5 M, 48 h, read-out: % growth
# EKVX = type: cell-based; details: Homo sapiens, one dose 10^-5 M, 48 h
# MDA-MB-435 = type: cell-based; details: Homo sapiens, one dose 10^-5 M, 48 h, read-out: % growth
# MOLT-4 = type: cell-based; details: Homo sapiens, one dose 10^-5 M, 48 h, read-out: % growth
# MDA-MB-231/ATCC = type: cell-based; details: Homo sapiens, one dose 10^-5 M, 48 h
# SF-268 = type: cell-based; details: Homo sapiens, one dose 10^-5 M, 48 h, read-out: % growth
# SN12C = type: cell-based, human; details: Homo sapiens, one dose 10^-5 M, 48 h
# IGROV1 = type: cell-based; details: Homo sapiens, IGROV-1, one dose 10^-5 M, 48 h, read-out: % growth
# HL-60(TB) = type: cell-based; details: Homo sapiens, one dose 10^-5 M, 48 h
# SK-MEL-2 = type: cell-based; details: Homo sapiens, one dose 10^-5 M, 48 h
# SNB-19 = type: cell-based; details: Homo sapiens, one dose 10^-5 M, 48 h, read-out: % growth
# NCI-H460 = type: cell-based; details: Homo sapiens, one dose 10^-5 M, 48 h, read-out: % growth
# CAKI-1 = type: cell-based; details: Homo sapiens, CAKI-1, 48 h, one dose 10^-5 M, 48 h
# KM12 = type: cell-based; details: Homo sapiens, one dose 10^-5 M, 48 h
# SNB-75 = type: cell-based; details: Homo sapiens, one dose 10^-5 M, 48 h
# SK-MEL-28 = type: cell-based; details: Homo sapiens, one dose 10^-5 M, 48 h
# MCF7 = type: cell-based; details: Homo sapiens, one dose 10^-5 M, 48 h, read-out: % growth
# U251 = type: cell-based; details: Homo sapiens, U-251, one dose 10^-5 M, 48 h
# MALME-3M = type: cell-based; details: Homo sapiens, one dose 10^-5 M, 48 h
# NCI-H23 = type: cell-based; details: Homo sapiens, one dose 10^-5 M, 48 h, read-out: % growth
# COLO 205 = type: cell-based; details: Homo sapiens, one dose 10^-5 M, 48 h
# ACHN = type: cell-based; details: Homo sapiens, one dose 10^-5 M, 48 h
# SK-OV-3 = type: cell-based; details: Homo sapiens, one dose 10^-5 M, 48 h
# SW-620 = type: cell-based; details: Homo sapiens, one dose 10^-5 M, 48 h
# [1] = tested on: full NCI 60 cell lines panel; details: for activity at 10 µM: Homo sapiens, 60 cell, 48 h, read-out: Mean % growth; for activity on all 60 cancer cell lines tested (in words): one dose
# Experimental: 60 different human tumour cell lines-representing leukaemia, melanoma, and malignancies of the lung, colon, brain, ovary, breast, prostate, and kidney are used in the operation of this screen.
# Compounds were dissolved in DMSO: glycerol (91) and were kept in a freezer at −70° C. The synthesised compounds were introduced to the culture at a single concentration of 1 0 ^−5 M and left to incubate for 48 h. A protein-binding dye called sulforhodamine B was used to measure end points (SRB).
# A mean graph showing the % growth of treated cells is used to represent the one-dose data. The value provided for the One-dose assay represents growth in comparison to the no-drug control and to the number of cells at time zero. This enables the identification of lethality (values between 0 and 100) as well as growth inhibition (values less than 0). A value of 100, for instance, indicates no growth inhibition. A value of 40 would indicate 60% growth inhibition. A value of 0 indicates no net growth over the course of the experiment. A value of −40 would indicate 40% lethality.
# Furthermore, the average sensitivity of all cell lines to the compound is termed as the full panel mean graph midpoints (MG-MID). The complete panel mean graph midpoints refers to the average sensitivity of all cell lines to the chemical (MG-MID). A measure of a compound’s selectivity for a given cell line is the ratio created by dividing the full panel mean graph midpoints (MG-MID) concentration by the individual subpanel MG-MID concentrations (obtained as the average sensitivity of all the cell lines in a given subpanel to the test compound).
# K-562 = type: cell-based; details: Homo sapiens, K562, one dose 10^-5 M, 48 h
# MDA-MB-468 = type: cell-based; details: Homo sapiens, one dose 10^-5 M, 48 h
# CCRF-CEM = type: cell-based; details: Homo sapiens, one dose 10^-5 M, 48 h
# HCT-15 = type: cell-based; details: Homo sapiens, one dose 10^-5 M, 48 h, read-out: % growth
# M14 = type: cell-based; details: Homo sapiens, one dose 10^-5 M, 48 h
# OVCAR-3 = type: cell-based; details: Homo sapiens, one dose 10^-5 M, 48 h
# UACC-62 = type: cell-based; details: Homo sapiens, one dose 10^-5 M, 48 h
# 786-0 = type: cell-based; details: Homo sapiens, one dose 10^-5 M, 48 h
# RXF 393 = type: cell-based; details: Homo sapiens, RXF 393, 48 h, one dose 10^-5 M, 48 h, read-out: % growth
# HCC-2998 = type: cell-based; details: Homo sapiens, one dose 10^-5 M, 48 h
smiles,measurement,setting,value
"CN(C)c1ccc(-c2cc([N+](=O)[O-])ccc2C=NNC(=N)c2cnc(S)nc2N)cc1 [Compound 4c, 4-amino-N'-[6-[4-(dimethylamino)phenyl]-(4-nitrophenyl)methylene]-2-mercapto pyrimidine-5-carboximidohydrazide]",% growth at 10 µM,DU-145,108%
same,% growth at 10 µM,NCI-H522,96%
same,% growth at 10 µM,A498,124%
same,% growth at 10 µM,HOP-92,118%
same,activity at 10 µM,HS 578T,95.2%
same,% cell growth at 10 µM,UO-31,75.4%
same,% growth at 10 µM,HOP-62,102%
same,% cell growth at 10 µM,TK-10,102%
same,activity at 10 µM,LOX IMVI,99.3%
same,activity at 10 µM,HCT-116,106%
same,percent cell growth at 10 µM,UACC-257,106%
same,percent cell growth at 10 µM,SR,107%
same,% growth at 10 µM,HT29,109%
same,percent cell growth at 10 µM,PC-3,94.1%
same,percent cell growth at 10 µM,OVCAR-5,110%
same,% growth at 10 µM,RPMI-8226,97%
same,% growth at 10 µM,A549/ATCC,104%
same,% growth at 10 µM,OVCAR-4,101%
same,% growth at 10 µM,SF-539,98.8%
same,activity at 10 µM,SK-MEL-5,103%
same,cell growth percent at 10 µM,NCI/ADR-RES,102%
same,% growth at 10 µM,NCI-H226,112%
same,% growth of cells at 10 µM,OVCAR-8,95.8%
same,% cell growth at 10 µM,SF-295,92.4%
same,% cell growth at 10 µM,BT-549,112%
same,activity at 10 µM,T-47D,101%
same,% cell growth at 10 µM,EKVX,100%
same,activity at 10 µM,MDA-MB-435,102%
same,activity at 10 µM,MOLT-4,109%
same,% growth at 10 µM,MDA-MB-231/ATCC,111%
same,activity at 10 µM,SF-268,87.8%
same,% growth at 10 µM,SN12C,99.5%
same,activity at 10 µM,IGROV1,102%
same,% growth at 10 µM,HL-60(TB),96.4%
same,% growth at 10 µM,SK-MEL-2,114%
same,activity at 10 µM,SNB-19,97.2%
same,activity at 10 µM,NCI-H460,108%
same,% growth at 10 µM,CAKI-1,99.6%
same,% growth at 10 µM,KM12,100%
same,% growth at 10 µM,SNB-75,100%
same,% cell growth at 10 µM,SK-MEL-28,112%
same,activity at 10 µM,MCF7,92%
same,% growth at 10 µM,U251,106%
same,% growth at 10 µM,MALME-3M,108%
same,activity at 10 µM,NCI-H23,104%
same,% growth at 10 µM,COLO 205,127%
same,% growth at 10 µM,ACHN,103%
same,% growth at 10 µM,SK-OV-3,95.7%
same,% growth at 10 µM,SW-620,109%
same,activity at 10 µM,[1],103%
same,activity on all 60 cancer cell lines tested (in words),[1],weak activity
same,% growth at 10 µM,K-562,104%
same,percent cell growth at 10 µM,MDA-MB-468,108%
same,% cell growth at 10 µM,CCRF-CEM,84.4%
same,activity at 10 µM,HCT-15,98.5%
same,% growth at 10 µM,M14,110%
same,% growth at 10 µM,OVCAR-3,106%
same,% growth at 10 µM,UACC-62,100%
same,% growth at 10 µM,786-0,95.7%
"Nc1nc(S)nc(-c2ccc(Cl)cc2)c1-c1ncn[nH]1 [Compound 5b, 4-Amino-6–(4-chlorophenyl)-5-(1H-1,2,4-triazol-5-yl)pyrimidine-2-thiol]",% growth at 10 µM,DU-145,109%
same,% growth at 10 µM,NCI-H522,85.5%
same,% growth at 10 µM,A498,109%
same,% growth at 10 µM,HOP-92,91.7%
same,activity at 10 µM,HS 578T,111%
same,% cell growth at 10 µM,UO-31,74.6%
same,% growth at 10 µM,HOP-62,88.6%
same,% cell growth at 10 µM,TK-10,109%
same,activity at 10 µM,LOX IMVI,99.2%
same,activity at 10 µM,HCT-116,92.1%
same,percent cell growth at 10 µM,UACC-257,112%
same,percent cell growth at 10 µM,SR,96.6%
same,% growth at 10 µM,HT29,95.4%
same,percent cell growth at 10 µM,PC-3,85.5%
same,percent cell growth at 10 µM,OVCAR-5,96.7%
same,% growth at 10 µM,RPMI-8226,98.6%
same,% growth at 10 µM,A549/ATCC,110%
same,% growth at 10 µM,OVCAR-4,112%
same,% growth at 10 µM,SF-539,92.5%
same,activity at 10 µM,SK-MEL-5,98.7%
same,% growth at 10 µM,NCI-H226,92.7%
same,% growth of cells at 10 µM,OVCAR-8,94.8%
same,% cell growth at 10 µM,SF-295,93.7%
same,activity at 10 µM,T-47D,86.4%
same,% cell growth at 10 µM,EKVX,98%
same,activity at 10 µM,MDA-MB-435,103%
same,activity at 10 µM,MOLT-4,108%
same,% growth at 10 µM,MDA-MB-231/ATCC,93.7%
same,activity at 10 µM,SF-268,96.7%
same,% growth at 10 µM,SN12C,93.5%
same,activity at 10 µM,IGROV1,98.7%
same,% growth at 10 µM,HL-60(TB),108%
same,% growth at 10 µM,SK-MEL-2,108%
same,activity at 10 µM,SNB-19,91%
same,activity at 10 µM,NCI-H460,110%
same,activity at 10 µM,RXF 393,115%
same,% growth at 10 µM,CAKI-1,82.8%
same,% growth at 10 µM,KM12,102%
same,% growth at 10 µM,HCC-2998,94.8%
same,% growth at 10 µM,SNB-75,78.7%
same,% cell growth at 10 µM,SK-MEL-28,111%
same,activity at 10 µM,MCF7,93.8%
same,% growth at 10 µM,U251,98.8%
same,% growth at 10 µM,MALME-3M,92.6%
same,activity at 10 µM,NCI-H23,97%
same,% growth at 10 µM,ACHN,96.9%
same,% growth at 10 µM,SK-OV-3,85.5%
same,% growth at 10 µM,SW-620,103%
same,activity at 10 µM,[1],98.4%
same,activity on all 60 cancer cell lines tested (in words),[1],weak activity
same,% growth at 10 µM,K-562,103%
same,percent cell growth at 10 µM,MDA-MB-468,101%
same,% cell growth at 10 µM,CCRF-CEM,97.9%
same,activity at 10 µM,HCT-15,103%
same,% growth at 10 µM,M14,98.9%
same,% growth at 10 µM,OVCAR-3,108%
same,% growth at 10 µM,UACC-62,95.9%
same,% growth at 10 µM,786-0,108%
